Measured values as given in ChEMBL document CHEMBL1149766, “Quantitative structure activity relationship studies on thiourea analogues as influenza virus neuraminidase inhibitors” (Eur J Med Chem, 2008).

Biological target: Neuraminidase (Influenza A virus, UniProt B4URF0)
Experiment: Inhibition of Influenza A virus neuraminidase activity

Sequence of Neuraminidase (B4URF0 whole entry): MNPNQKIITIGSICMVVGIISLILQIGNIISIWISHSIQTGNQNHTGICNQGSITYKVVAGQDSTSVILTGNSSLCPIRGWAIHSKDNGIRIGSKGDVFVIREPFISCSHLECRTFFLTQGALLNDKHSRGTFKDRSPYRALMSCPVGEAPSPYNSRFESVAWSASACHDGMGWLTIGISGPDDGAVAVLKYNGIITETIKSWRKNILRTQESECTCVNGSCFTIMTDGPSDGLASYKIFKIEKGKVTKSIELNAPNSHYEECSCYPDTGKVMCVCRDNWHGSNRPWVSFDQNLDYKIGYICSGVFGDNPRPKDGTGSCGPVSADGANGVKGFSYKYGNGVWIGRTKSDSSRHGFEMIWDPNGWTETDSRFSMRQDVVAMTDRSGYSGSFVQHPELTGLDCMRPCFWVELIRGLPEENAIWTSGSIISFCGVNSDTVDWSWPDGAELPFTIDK

SMILES	IC50 [nM]
COc1cc(Cl)nc(NC(=S)NC(=O)c2ccc(Cl)nc2)n1	> 20000
CC(C)(C)NC(=O)NC(=S)NC(=O)c1c(F)cccc1F	1430
Cc1cc(O)nc(NC(=S)NC(=O)c2ccc(-c3ccc([N+](=O)[O-])cc3)o2)n1	360
COc1cc(C)nc(NC(=S)NC(=O)c2ccc(Cl)nc2)n1	> 20000
COc1cc(C)nc(NC(=S)NC(=O)c2ccc(-c3ccccc3Cl)o2)n1	> 20000
COc1cc(OC)nc(NC(=S)NC(=O)c2ccc(-c3ccccc3Cl)o2)n1	1770
CC(C)(C)NC(=O)NC(=S)NC(=O)c1ccccc1	1790
COc1cc(C)nc(NC(=S)NC(=O)c2ccc(-c3ccc([N+](=O)[O-])cc3)o2)n1	1220
CCOc1cc(Cl)nc(NC(=S)NC(=O)c2ccc(-c3ccccc3Cl)o2)n1	> 20000
CCOc1cc(OCC)nc(NC(=S)NC(=O)c2cccnc2Cl)n1	> 20000
CC(C)(C)NC(=O)NC(=S)NC(=O)c1ccc(-c2ccc([N+](=O)[O-])cc2)o1	1300
COc1cc(OC)nc(NC(=S)NC(=O)c2cccnc2)n1	> 20000
COc1cc(Cl)nc(NC(=S)NC(=O)c2cccnc2Cl)n1	2590
Cc1cc(O)nc(NC(=S)NC(=O)c2ccc(Cl)nc2)n1	8580
CC(C)[C@H](C(=O)NC(=S)NC(=O)NC(C)(C)C)c1ccc(Cl)cc1	1350
CCOc1cc(C)nc(NC(=S)NC(=O)c2ccc(-c3ccc([N+](=O)[O-])cc3)o2)n1	2300
CCOc1cc(C)nc(NC(=S)NC(=O)c2ccc(-c3ccccc3Cl)o2)n1	1650
CC(C)(C)NC(=O)NC(=S)NC(=O)COc1ccc(Cl)cc1Cl	1670
Cc1cc(C)nc(NC(=S)NC(=O)c2cccnc2Cl)n1	7190
CC(C)(C)NC(=O)NC(=S)NC(=O)c1ccc(-c2ccccc2Cl)o1	1420

SMILES	IC50 [nM]
COc1cc(OC)nc(NC(=S)NC(=O)c2cnc(Cl)c(Cl)c2)n1	18500
O=C(NC(=S)Nc1nc(Cl)cc(Cl)n1)c1ccc(-c2ccccc2Cl)o1	14500
CCOc1cc(OCC)nc(NC(=S)NC(=O)c2ccc(-c3ccc([N+](=O)[O-])cc3)o2)n1	> 20000
CCOc1cc(OCC)nc(NC(=S)NC(=O)c2ccc(Cl)nc2)n1	> 20000
Cc1cc(O)nc(NC(=S)NC(=O)c2ccc(-c3ccccc3Cl)o2)n1	320
COC(=O)NC(=S)NC(=O)NC(C)(C)C	1830
CCOc1cc(OCC)nc(NC(=S)NC(=O)c2ccc(-c3ccccc3Cl)o2)n1	80
CCOc1cc(Cl)nc(NC(=S)NC(=O)c2cccnc2Cl)n1	> 20000
COc1cc(Cl)nc(NC(=S)NC(=O)c2ccc(-c3ccccc3Cl)o2)n1	1290
CC(C)(C)NC(=O)NC(=S)NC(=O)[C@H]1[C@H](C=C(Cl)Cl)C1(C)C	260
CC(C)C(C(=O)NC(=S)Nc1nc(Cl)cc(Cl)n1)c1ccc(Cl)cc1 (stereo not given)	> 20000
COc1cc(OC)nc(NC(=S)NC(=O)C2C(/C=C(\Cl)C(F)(F)F)C2(C)C)n1 (stereo not given)	970
CC(C)(C)NC(=O)NC(=S)NC(=O)[C@@H]1[C@H](/C=C(\Cl)C(F)(F)F)C1(C)C	510
COc1cc(OC)nc(NC(=S)NC(=O)COc2ccc(Cl)cc2Cl)n1	1890
Cc1cc(C)nc(NC(=S)NC(=O)c2ccc(Cl)cc2F)n1	1360
Cc1cc(C)nc(NC(=S)NC(=O)c2ccccc2)n1	2100
COc1cc(Cl)nc(NC(=S)NC(=O)c2ccc(Cl)cc2F)n1	5100
O=C(NC(=S)Nc1nc(Cl)cc(Cl)n1)c1ccc(-c2ccc([N+](=O)[O-])cc2)o1	1660
Cc1cc(C)nc(NC(=S)NC(=O)C2C(/C=C(\Cl)C(F)(F)F)C2(C)C)n1 (stereo not given)	580
CCOc1cc(OCC)nc(NC(=S)NC(=O)C(c2ccc(Cl)cc2)C(C)C)n1 (stereo not given)	310
